Data published in ChEMBL document CHEMBL3632480, “Optimization of an indazole series of selective estrogen receptor degraders: Tumor regression in a tamoxifen-resistant breast cancer xenograft” (Bioorg Med Chem Lett, 2015).

Columns and labels:
MCF7 [1] = assay: Decrease in estrogen receptor alpha level in human MCF7 cells after 4 hrs by in-cell western assay relative to fulvestrant; type: functional; conditions: MCF7, 4 h
MCF7 [2] = assay: Decrease in estrogen receptor alpha level in human MCF7 cells after 4 hrs by in-cell western assay; type: functional, cell-based; conditions: MCF7, 4 h
[3] = AUC in CD-1 mouse at 10 mg/kg, po; type: ADME, organism-based; conditions: in vivo
MCF7 [4] = assay: Cytotoxicity against human MCF7 cells assessed as decrease in cell viability after 5 days by celltiterGlo assay; type: functional, cell-based; conditions: MCF7, 120 h
Rattus norvegicus = assay: Decrease in uterine wet weight of CD-IGS rat at 1 mg/kg, po qd followed 15 mins later administration of 0.1 mg/kg, po 17alpha-ethynylestradiol for 3 consecutive days; type: functional
[5] = Fraction unbound in CD-1 mouse plasma by equilibrium dialysis; type: ADME, cell-free

SMILES	EC50 (MCF7 [2]) [nM]	AUC [3] [ng·h/mL]	fraction unbound [5]	Emax (MCF7 [1]) [%]	IC50 (MCF7 [4]) [nM]	inhibition (INH) (Rattus norvegicus) [%]
Cc1cccnc1/C(=C(\c1ccc(/C=C/C(=O)O)cc1)c1ccc2[nH]nc(F)c2c1)C1CCC1	0.8	190	–	88	4.2	–
COc1ccc(/C(=C(\c2ccc(/C=C/C(=O)O)cc2)c2ccc3[nH]nc(F)c3c2)C2CCC2)c(Cl)c1	0.8	20500	0.001	93	2.4	90
CC/C(=C(/c1ccc(/C=C/C(=O)O)cc1)c1ccc2[nH]ncc2c1)c1ccc(F)cc1Cl [BRILANESTRANT]	–	–	0.011	90	2.5	79
C[C@]12CC[C@@H]3c4ccc(O)cc4C[C@@H](CCCCCCCCC[S+]([O-])CCCC(F)(F)C(F)(F)F)[C@H]3[C@@H]1CC[C@@H]2O (stereo partly specified) [FULVESTRANT]	0.4	–	–	100	0.6	–
CC/C(=C(/c1ccc(/C=C/C(=O)O)cc1)c1cc(C)c2[nH]ncc2c1)c1ccccc1	19	–	–	89	59	–
O=C(O)/C=C/c1ccc(/C(=C(\c2ccccc2)C2CCC2)c2ccc3[nH]nc(F)c3c2)cc1	0.4	14600	0.003	90	1.4	81
CC/C(=C(/c1ccc(/C=C/C(=O)O)cc1)c1cc(F)c2[nH]ncc2c1)c1ccccc1	6.4	–	–	92	7.5	–
CC/C(=C(/c1ccc(/C=C/C(=O)O)cc1)c1ccc2[nH]ncc2c1F)c1ccccc1	0.9	8200	–	89	3	–
COc1ccc(/C(=C(\c2ccc(/C=C/C(=O)O)cc2)c2ccc3[nH]nc(F)c3c2)C2CCC2)c(C#N)c1	0.3	2000	0.004	94	0.5	82
N#Cc1cnccc1/C(=C(\c1ccc(/C=C/C(=O)O)cc1)c1ccc2[nH]nc(F)c2c1)C1CCC1	1.1	70	0.1	92	3.8	22
CC/C(=C(/c1ccc(/C=C/C(=O)O)cc1)c1ccc2[nH]ncc2c1Cl)c1ccccc1	0.8	18000	–	93	1.6	–
N#Cc1cc(Cl)cnc1/C(=C(\c1ccc(/C=C/C(=O)O)cc1)c1ccc2[nH]nc(F)c2c1)C1CCC1	0.4	250	–	93	1.1	–
O=C(O)/C=C/c1ccc(/C(=C(\c2ccccn2)C2CCC2)c2ccc3[nH]nc(F)c3c2)cc1	7.6	–	–	90	22	–
O=C(O)/C=C/c1ccc(/C(=C(\c2ccc(F)cc2Cl)C2CCC2)c2ccc3[nH]nc(F)c3c2)cc1	0.6	–	–	91	2	–
O=C(O)/C=C/c1ccc(/C(=C(\c2ncccc2C(F)(F)F)C2CCC2)c2ccc3[nH]nc(F)c3c2)cc1	0.3	690	0.048	89	1.1	–
CC/C(=C(/c1ccc(/C=C/C(=O)O)cc1)c1ccc2[nH]ncc2c1C)c1ccccc1	13	–	–	90	50	–
CS(=O)(=O)c1ccc(/C(=C(\c2ccc(/C=C/C(=O)O)cc2)c2ccc3[nH]nc(F)c3c2)C2CCC2)c(Cl)c1	0.9	140	–	91	2.3	29
CC/C(=C(/c1ccc(/C=C/C(=O)O)cc1)c1ccc2[nH]ncc2c1OC)c1ccccc1	19	–	–	91	55	–
O=C(O)/C=C/c1ccc(/C(=C(\c2ccc(C(F)(F)F)cc2Cl)C2CCC2)c2ccc3[nH]nc(F)c3c2)cc1	3	–	–	94	8.2	–
CC/C(=C(/c1ccc(/C=C/C(=O)O)cc1)c1ccc2[nH]ncc2c1C#N)c1ccccc1	0.5	500	–	91	1.5	–
CC/C(=C(/c1ccc(/C=C/C(=O)O)cc1)c1ccc2[nH]ncc2c1)c1ccccc1	–	–	–	90	7.2	–
O=C(O)/C=C/c1ccc(/C(=C(\c2ncc(F)cc2Cl)C2CCC2)c2ccc3[nH]nc(F)c3c2)cc1	0.6	–	–	89	1.7	–

Continued, in another order:

EC50 (MCF7 [2]) [nM]	AUC [3] [ng·h/mL]	fraction unbound [5]	SMILES	Emax (MCF7 [1]) [%]	IC50 (MCF7 [4]) [nM]	inhibition (INH) (Rattus norvegicus) [%]
4.6	–	–	CCC/C(=C(/c1ccc(/C=C/C(=O)O)cc1)c1ccc2[nH]ncc2c1)c1ccccc1	92	11	–
1.4	–	–	O=C(O)/C=C/c1ccc(/C(=C(/CCF)c2ccccc2)c2ccc3[nH]ncc3c2)cc1	91	2.1	–
47	–	–	COCC/C(=C(/c1ccc(/C=C/C(=O)O)cc1)c1ccc2[nH]ncc2c1)c1ccccc1	92	63	–
1.4	–	–	O=C(O)/C=C/c1ccc(/C(=C(/CCCl)c2ccccc2)c2ccc3[nH]ncc3c2)cc1	90	9	–
20	–	–	CC/C(=C(/c1ccc(/C=C/C(=O)O)cc1)c1ccc2[nH]ncc2n1)c1ccccc1	88	33	–
11	–	–	CCCC/C(=C(/c1ccc(/C=C/C(=O)O)cc1)c1ccc2[nH]ncc2c1)c1ccccc1	92	10	–
25	–	–	O=C(O)/C=C/c1ccc(/C(=C(\c2ccccc2)C2CCCCC2)c2ccc3[nH]ncc3c2)cc1	86	64	–
0.3	–	–	O=C(O)/C=C/c1ccc(/C(=C(\c2ccccc2)C2CCC2)c2ccc3[nH]ncc3c2)cc1	89	1.4	–
4.3	–	–	CC(C)/C(=C(/c1ccc(/C=C/C(=O)O)cc1)c1ccc2[nH]ncc2c1)c1ccccc1	91	4	–
9.3	–	–	O=C(O)/C=C/c1ccc(/C(=C(\c2ccccc2)C2CCCC2)c2ccc3[nH]ncc3c2)cc1	90	10	–
2.8	–	–	O=C(O)/C=C/c1ccc(/C(=C(\c2ccccc2)C2CC2)c2ccc3[nH]ncc3c2)cc1	89	13	–
> 1000	–	–	O=C(O)/C=C/c1ccc(/C(=C(/CCO)c2ccccc2)c2ccc3[nH]ncc3c2)cc1	–	> 1000	–
18	–	–	CC/C(=C(/c1ccc(/C=C/C(=O)O)cc1)c1cc(Cl)c2[nH]ncc2c1)c1ccccc1	92	56	–
3.1	–	–	O=C(O)/C=C/c1ccc(/C(=C(\c2ccccc2)C(F)(F)F)c2ccc3[nH]ncc3c2)cc1	92	5.5	–
4.7	–	–	O=C(O)/C=C/c1ccc(/C(=C(\c2ccccc2)C(F)F)c2ccc3[nH]ncc3c2)cc1	91	14	–
35	–	–	COC/C(=C(/c1ccc(/C=C/C(=O)O)cc1)c1ccc2[nH]ncc2c1)c1ccccc1	86	88	–
1.1	14000	–	CC/C(=C(/c1ccc(/C=C/C(=O)O)cc1)c1ccc2[nH]nc(F)c2c1)c1ccccc1	90	5	–
26	–	–	C/C(=C(/c1ccc(/C=C/C(=O)O)cc1)c1ccc2[nH]ncc2c1)c1ccccc1	92	40	–
